Experimental data as given in patent publication US6716613B1, “Metalloprotease having aggrecanase activity” (Yamanouchi Pharmaceutical Co., Ltd., priority 1999, dated 2004).

Experiments:
MDTS6 mRNA [1] = test: Induction of MDTS6 mRNA expression in rabbit knee joint cartilage primary culture cells (RT-PCR); assay type: cell-based; conditions: 10 ng/ml of IL-1β or 10 μM of all-trans retinoic acid; 2 and 6 hours
Experimental: After 3 days of culturing of the rabbit knee joint cartilage primary culture cells of 6 well plate described in Example 11-1 by changing the medium to ascorbic acid medium, 10 ng/ml of IL-1β or 10 μM of all-trans retinoic acid was added thereto, and total RNA samples 2 and 6 hours thereafter were prepared using ISOGEN (mfd. by Nippon Gene) in accordance with the attached instructions. Each of the samples was treated with DNase I (mfd. by Nippon Gene), subjected to phenol/chloroform treatment and then recovered by ethanol precipitation, and the thus purified total RNA was dissolved in DEPC-treated sterile water. Using random hexamers as primers, 1 μg of this total RNA was subjected to reverse transcription reaction and RNase H treatment using Thermoscript™ RT-PCR System (mfd. by GIBCO-BRL, catalog number 11146-016) in accordance with the attached instructions, and the product was diluted 10 times with sterile water and used as a cDNA sample. Using 5 μl of each of the thus obtained cDNA samples as the template and the oligoDNA sequences represented by SEQ ID NO:18 and SEQ ID NO:19 as primers, PCR was carried out under a condition of 94° C. for 2 minutes, 45 repetitions of a cycle of 94° C. for 30 seconds, 65° C. for 30 seconds and 72° C. for 30 seconds, and subsequent 72° C. for 10 minutes. […]

MDTS6 mRNA [2] = test: Expression induction of MDTS6 mRNA in ATDC5 cells (RT-PCR); assay type: cell-based, mouse; conditions: insulin-differentiated, IL-1β 5 ng/ml for 0, 1, 2, 4 or 8 hours
Experimental: It is known that a mouse cell strain ATDC5 is differentiated into a chondrocyte-like cell by insulin treatment (Atsumi T. et al., Cell Differ. Dev., 30, 109-116, 1990). The ATDC5 cells were inoculated in 4×10^5/well portions into an I type collagen-coated 6 well plate (mfd. by Asahi Technoglass) and cultured for 2 days using DMEM/HamF12 (1:1)/5% FCS medium, the medium was changed to DMEM/HamF12 (1:1)/5% FCS medium containing insulin (final concentration 30 ng/ml) and 50 μg/ml of L-ascorbic acid and the culturing was continued for 5 days, and then the resulting cells were treated for 0, 1, 2, 4 or 8 hours by adding IL-1β (final concentration 5 ng/ml). Total RNA was prepared from each of the treated groups using ISOGEN (mfd. by Nippon Gene), and RT-PCR was carried out using 1 μg portion thereof as the template and using BcaBEST™ RNA PCR Kit (mfd. by Takara Shuzo). The reverse transcription reaction was carried out using Oligo dT-Adaptor Primer as the primer in accordance with the attached instructions, and PCR was carried out using oligoDNA sequences represented by SEQ ID NO:15 and SEQ ID NO:16 as primers, which had been synthesized based on the 3′ non-translation region of MDTS6, by the reaction of 94° C. for 2 minutes, 40 repetitions of a cycle of 94° C. for 30 seconds, 60° C. for 30 seconds and 72° C. for 30 seconds, and subsequent 72° C. for 7 minutes. […]

[3] = system: rabbit knee joint cartilage primary culture cells; test: Proteoglycan degradation/release in rabbit knee joint cartilage primary culture cells (35S label); assay type: cell-based
Experimental: After killing a rabbit (Japanese white species, male, 1.0 to 1.5 kg) under excess anesthesia, a knee joint was excised and the cartilage layer on the joint surface was removed and finely cut using a surgical knife. The cut pieces were treated with trypsin-EDTA (0.25%-1 mM; mfd. by GIBCO-BRL) at 37° C. for 1 hour and then centrifuged at 1,500 rpm for 5 minutes, and the resulting precipitate was washed with DMEM. This was treated with collagenase A (0.15%; Boehringer-Mannheim)/DMEM at 37° C. for 3 to 4 hours, and then a nylon mesh filter (100 μm, mfd. by Falcon)-passed fraction was centrifuged at 1,500 rpm for 5 minutes to effect precipitation of cartilage cells. The cells were thoroughly washed with DMEM/10% FBS medium, suspended in DMEM/10% FBS medium to a density of 2×10^5 cells/ml and then inoculated in 200 μl/well portions into an I type collagen-coated 96 well plate (mfd. by Asahi Technoglass). Three days thereafter, the medium was changed to 200 μof DMEM/10% FBS medium containing 50 μg/ml of ascorbic acid (ascorbic acid medium hereinafter), and the culturing was continued for 3 days. When an I type collagen-coated 6 well plate (Asahi Technoglass) was used, the cell suspension was inoculated in 6 ml/well portions and cultured by carrying out the same medium exchange. These cells were used in the following test.
The rabbit knee joint cartilage primary culture cells of 96 well plate described in Example 11-1 were cultured for 2 days using 200 μl of the ascorbic acid medium supplemented with 10 μCi/ml in final concentration of Na2^35SO4 and labeled therewith, washed 3 times with 200 μl of the ascorbic acid medium and then cultured for 1 day using 200 μl of the ascorbic acid medium. After stimulation with IL-1β or all-trans retinoic acid and subsequent 0, 24, and 48 hours of culturing, the culture supernatants were recovered in 20 μl portions, and the radioactivity was measured using Top Count (mfd. by Packard).
Each of the compounds A, B, C and D selected by the screening system of Example 10-2 was added to the proteoglycan degradation system of rabbit knee joint cartilage primary culture cells just before the stimulation with 10 μM of all-trans retinoic acid, and their proteoglycan degradation inhibitory activities were examined.

MDTS6Cys = target: T1, MDTS6Cys (Homo sapiens, UniProt Q8TE58); test: ELISA screening system for aggrecanase activity inhibition (anti-aggrecanase neoepitope antibody); assay type: biochemical; conditions: MDTS6Cys culture supernatant, recombinant aggrecan G1G2 substrate, 37° C. for several hours; read-out: aggrecanase activity inhibition strength (IC50)
T1 construct: made in house; host or cells: HEK293-EBNA cells; unpurified culture supernatant used as enzyme source
T1 sequence (Q8TE58 213-687): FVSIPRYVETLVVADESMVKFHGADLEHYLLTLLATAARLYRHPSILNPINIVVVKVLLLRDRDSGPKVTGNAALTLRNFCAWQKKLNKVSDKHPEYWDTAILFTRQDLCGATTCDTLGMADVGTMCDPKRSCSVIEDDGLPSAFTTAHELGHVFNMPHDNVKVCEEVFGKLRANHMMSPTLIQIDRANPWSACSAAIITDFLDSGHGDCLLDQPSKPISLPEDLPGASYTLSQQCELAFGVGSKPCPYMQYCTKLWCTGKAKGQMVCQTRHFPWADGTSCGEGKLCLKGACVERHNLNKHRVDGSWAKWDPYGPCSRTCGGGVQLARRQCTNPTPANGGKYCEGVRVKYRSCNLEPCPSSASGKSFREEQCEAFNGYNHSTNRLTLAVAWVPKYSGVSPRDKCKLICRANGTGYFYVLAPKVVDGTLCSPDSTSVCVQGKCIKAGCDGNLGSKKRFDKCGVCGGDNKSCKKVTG
Experimental: The criterion to screen a substance which inhibits the aggrecanase activity is preferably 10 μM or less, more preferably 1.0 μM or less, as inhibition activity strength (IC50)

Compound	expression of the MDTS6 mRNA (MDTS6 mRNA [1])	expression of the MDTS6 mRNA (MDTS6 mRNA [2])	release of proteoglycan (increase in radioactivity of culture supernatant) ([3]; stimulation with 0.01 to 10 ng/ml IL-1β or 0.1 to 10 μM all-trans retinoic acid, 0, 24, 48 hours of culturing)	IC50 (MDTS6Cys)	inhibition of proteoglycan degradation (in words, FIG. 8) ([3]; compound added just before stimulation with 10 μM of all-trans retinoic acid)
IL-1β: cytokine used to stimulate proteoglycan release and MDTS6 mRNA expression	induced	transiently induced	increase in the radioactivity, namely release of proteoglycan, was observed	–	–
CNC(=O)[C@H](Cc1ccccc1)NC(=O)C(CC(C)C)C(CS)C(=O)NO (stereo partly drawn) [compound B, N^α-[2-(1-hydroxycarbamoyl-2-sulfanylethyl)-4-methylpentanoyl]-N-methylphenylalanineamide]	–	–	–	1000 nM	inhibition of proteoglycan degradation in a concentration-dependent manner
